Results from publication PMC6722685, “A Novel Marine Natural Product Derived Pyrroloiminoquinone with Potent Activity against Skin Cancer Cells” (Marine Drugs, 2019).

Assays:
[1] = test system: SCC13 cells; test: MTT assay for cell viability, SCC13 cells; format: cell-based, human; settings: for IC50 / IC90: Homo sapiens, SCC-13, MTT, 24 h treatment, mean ± SD, n = 4; for IC50: read-out: SSC13 Cells IC50 ± SD; for IC90: read-out: SSC13 Cells IC90 ± SD
Experimental: (§1) We first investigated the dose-dependent effects of all five compounds on the cell viability of human skin cancer cell line, SCC13 as well as an immortalized human skin keratinocyte cell line, HaCaT through MTT assay. […] IC50 and IC90 values for these compounds against these two cell lines were calculated (Table 1). There were statistically significant differences between these two values with p < 0.05.
(§2) All cell lines were seeded on a 96-well cell culture plate at 2 × 10^5 cells per well. After 24 h, the cells were treated with increasing doses of the compounds (0, 0.0625 μM, 0.125 μM, 0.25 μM, 0.5 μM, 1.0 μM). After incubation for 24 h, the medium was removed and 100 μL of MTT solution (500 µg/mL) in PBS was added and kept for 4 h at 37 °C. The formazan crystals thus formed were dissolved in DMSO and the optical density (OD) was measured at 570 nm using a microplate reader (BioTek Synergy H1 Plate Reader, Winooski, VT, USA).

[2] = test system: HaCaT cells; test: MTT assay for cell viability, HaCaT cells; format: cell-based; settings: 24 h treatment, normal human keratinocytes, mean ± SD, n = 4
Experimental: as §1, §2

[3] = test system: SCC13 cells; test: Wound healing (cell migration) assay; format: cell-based, human; settings: 24 h, control group 93.37 ± 3.35
Experimental: Figure 4 Effect of C278 on migration and invasion ability of the SCC13 cells. (A) SCC13 cells were allowed to proliferate in a 24-well plate until reaching confluency. A scratch was made on the plate using a pipette tip. The unattached cells were washed off. The cells were then treated with either 0.1% DMSO or two doses of C278 (0.5 µM and 1.0 µM) and incubated for 24 h. The images were captured at the time of drug treatment and after 24 h of incubation through a light microscope. (Scale bar: 200 µM). (B) Percent wound closure was measured using Image J software and plotted in bar graphs. Results are combined from two independent experiments and presented as mean ± SD; n = 4. (C) SCC13 cells were seeded in the invasion chambers and incubated for 4 h. Now the cells were treated either with 0.1% DMSO or two doses of C278 (0.5 µM and 1.0 µM) for 24 h. The cells from the upper surface of the membrane were removed with cotton swabs. The invaded cells, which were in the lower surface of the membrane, were stained with crystal violet. Images of the invaded cells were captured using a light microscope. (D) The average number of cells invaded was counted in each group and plotted in bar graphs. […]
SCC13 cells were seeded on 24-well cell culture plate at a density of 2 × 10^5 cells/well and cultured until cells were confluent. […] Percent change in wound area was measured by Image J software.

[4] = test system: SCC13 cells; test: Cell invasion (trans-well, Matrigel) assay; format: cell-based, human; settings: 24 h, control group 56.50 ± 4.95%
Experimental: Figure 4 Effect of C278 on migration and invasion ability of the SCC13 cells. (A) SCC13 cells were allowed to proliferate in a 24-well plate until reaching confluency. A scratch was made on the plate using a pipette tip. The unattached cells were washed off. The cells were then treated with either 0.1% DMSO or two doses of C278 (0.5 µM and 1.0 µM) and incubated for 24 h. The images were captured at the time of drug treatment and after 24 h of incubation through a light microscope. (Scale bar: 200 µM). (B) Percent wound closure was measured using Image J software and plotted in bar graphs. Results are combined from two independent experiments and presented as mean ± SD; n = 4. (C) SCC13 cells were seeded in the invasion chambers and incubated for 4 h. Now the cells were treated either with 0.1% DMSO or two doses of C278 (0.5 µM and 1.0 µM) for 24 h. The cells from the upper surface of the membrane were removed with cotton swabs. The invaded cells, which were in the lower surface of the membrane, were stained with crystal violet. Images of the invaded cells were captured using a light microscope. (D) The average number of cells invaded was counted in each group and plotted in bar graphs. Results are presented as mean ± SD; n = 4. * p < 0.01, ** p < 0.001, *** p < 0.0001. […]

[5] = test system: proliferating cell nuclear antigen (PCNA); test: Western blot, PCNA expression in SCC13 cells; format: cell-based, human; settings: 24 h, dose-dependent
Experimental: Figure 3 Effects of C278 on the viability of SCC13 and HaCaT cells (A) SCC13 cells were treated with increasing concentrations of C278 at 24 h, and the percentage cell viability was estimated. Results are combined from two independent experiments and are presented as mean ± SD; n = 4. (B) HaCaT cells were treated with increasing concentrations of C278 at 24 h, and the percentage cell viability was estimated. Results are combined from two independent experiments and are presented as mean ± SD; n = 4. (C) Expression of PCNA was measured through western blot. The expression of this protein was normalized using β-Actin as a loading control. Figures are representatives of 2 independent experiments. (D) Densiometric analysis of bands was performed and the bar graphs expressing arbitrary units are presented. Error bar represents mean ± SD, n = 4. * p < 0.01, ** p < 0.001, *** p < 0.0001.
(§3) SCC13 cells (1–2 × 10^6) cultured in 6-well culture plate were treated with different concentrations of C278 for 24 h. […] Membranes were then washed three times with wash buffer (TBS containing 0.5% Tween), and then incubated with horseradish peroxidase (HRP)-conjugated secondary Ab and detected by enhanced chemiluminescence (ECL) detection system according to the manufacturer’s instructions.

[6] = test system: Bcl-2; test: Western blot, Bcl-2 expression in SCC13 cells; format: cell-based, human; settings: SCC13 cells, 0.25, 0.5 and 1 µM, 24 h
Experimental: (§4) Figure 5 Effect of C278 on apoptotic and autophagy related proteins in SCC13 cells. SCC13 cells were treated with 0.1% DMSO and 0.25, 0.5 and 1 µM of C278 for 24 h. The cells were then lysed in cell lysis buffer and protein was estimated. Western blot was performed to estimate the level of expression for human Bcl2, Cleaved-PARP and Beclin-1. The expression of these proteins was normalized using β-Actin as a loading control. Figures are representatives of 2 independent experiments. Bands were analyzed densiometrically and bar graphs expressing arbitrary units are presented adjacent to the western blot. Error bar represents mean ± SD, n = 4. * p < 0.01. ** p < 0.001.
as §3, with “h. Cells were then lysed in cell lysis buffer containing protease inhibitor cocktail and the protein concentrations in the cleared supernatants were estimated using the bicinchoninic acid (BCA) protein assay. The cell lysates were resolved by 10% SDS-PAGE and transferred to nitrocellulose membrane (BioRad, Hercules, CA, USA).” for “h.”

[7] = test system: cleaved-PARP; test: Western blot, cleaved-PARP in SCC13 cells; format: cell-based, human; settings: SCC13 cells, 0.25, 0.5 and 1 µM, 24 h
Experimental: as §4
as §3, with “h. Cells were then lysed in cell lysis buffer containing protease inhibitor cocktail and the protein concentrations in the cleared supernatants were estimated using the bicinchoninic acid (BCA) protein assay. The cell lysates were resolved by 10% SDS-PAGE and transferred to nitrocellulose membrane (BioRad, Hercules, CA, USA).” for “h.”

[8] = test system: beclin-1; test: Western blot, beclin-1 expression in SCC13 cells; format: cell-based, human; settings: SCC13 cells, 0.25, 0.5 and 1 µM, 24 h
Experimental: as §4
as §3, with “h. Cells were then lysed in cell lysis buffer containing protease inhibitor cocktail and the protein concentrations in the cleared supernatants were estimated using the bicinchoninic acid (BCA) protein assay. The cell lysates were resolved by 10% SDS-PAGE and transferred to nitrocellulose membrane (BioRad, Hercules, CA, USA).” for “h.”

SMILES	IC50 [1]	IC90 [1]	IC50 [2]	IC90 [2]	selectivity for killing SCC13 cells compared to HaCaT cells ([1]; SCC13 vs HaCaT)	Percent wound closure ([3]; 0.5 μM)	Percent wound closure ([3]; 1.0 μM)	number of invasive cells ([4]; 0.5 μM)	number of invasive cells ([4]; 1.0 μM)	expression of PCNA [5]	expression of Bcl-2 protein [6]	production of cleaved-PARP [7]	expression of beclin-1 [8]
Cc1ccc(S(=O)(=O)n2cc3c4c2C(=O)C(NCc2ccccc2)=CC4=NCC3)cc1 [Compound C11]	510 ± 30 nM	920 ± 60 nM	480 ± 10 nM	870 ± 30 nM	–	–	–	–	–	–	–	–	–
Cc1ccc(S(=O)(=O)n2cc3c4c2C(=O)C(NCCc2ccc5c(c2)OCO5)=CC4=NCC3)cc1 [Compound C15]	5310 ± 190 nM	9560 ± 350 nM	730 ± 90 nM	1320 ± 160 nM	–	–	–	–	–	–	–	–	–
Cc1ccc(S(=O)(=O)n2cc3c4c2C(=O)C(NCc2ccco2)=CC4=NCC3)cc1 [Compound C45]	2580 ± 230 nM	4650 ± 420 nM	5240 ± 80 nM	9430 ± 150 nM	–	–	–	–	–	–	–	–	–
O=C1C(NCCc2ccc3c(c2)OCO3)=CC2=NCCc3c[nH]c1c32 [Compound C238]	820 ± 20 nM	1480 ± 40 nM	2350 ± 210 nM	4230 ± 360 nM	–	–	–	–	–	–	–	–	–
O=C1C(NCc2cccs2)=CC2=NCCc3c[nH]c1c32 [Compound C278]	500 ± 110 nM	900 ± 210 nM	1150 ± 210 nM	2070 ± 370 nM	two-fold	69.06 ± 2.91%	39.53 ± 2.17%	32.00 ± 4.24%	19.50 ± 4.95%	downregulation	significantly downregulated	increased in a dose-dependent manner	increased in a dose-dependent manner
